Source: patent publication US6429212B1, “Medicinal composition” (Ishihara Sangyo Kaisha Ltd., priority 1996, dated 2002)

Assays:
aminopeptidase N = aminopeptidase N (Homo sapiens, UniProt P15144); assay: Inhibitory effect to aminopeptidase N (L-alanine-7-amido-4-methylcoumarin substrate, MOLT-4 cells, fluorescence); format: biochemical; conditions: based on fluorescence intensity of the control fraction (Table 13, Test Example 9)
Method: As the substrate buffer solution, 100 mM Hepes buffer solution pH 7.6 (including 120 mM sodium chloride, 5 mM potassium chloride, 1.2 mM magnesium sulfate and 0.5% bovine serum albumin) was used. After the reaction was finished, fluorescence intensity was measured by using MTP-32 Colonna microplate reader (produced by Colonna Electric) under measurement condition at an excitation wavelength of 380 nm and at an emission wavelength of 440 nm. […] The values in the Table are based on fluorescence intensity of the control fraction, and represent the enzyme-inhibitory activity as IC50 (μg/ml).

[1] = target: T1, human platelet derived endothelial cell growth factor (thymidine phosphorylase) (Homo sapiens, UniProt P19971); assay: Inhibitory activity to platelet derived endothelial cell growth factor (thymidine phosphorylase); format: biochemical; conditions: 37° C., 90 minutes, pH 5.6, absorbance at 300 nm; from 0.1, 1, 10 and 100 μg/ml
T1 construct: purchased Sigma
T1 sequence (P19971 11-482): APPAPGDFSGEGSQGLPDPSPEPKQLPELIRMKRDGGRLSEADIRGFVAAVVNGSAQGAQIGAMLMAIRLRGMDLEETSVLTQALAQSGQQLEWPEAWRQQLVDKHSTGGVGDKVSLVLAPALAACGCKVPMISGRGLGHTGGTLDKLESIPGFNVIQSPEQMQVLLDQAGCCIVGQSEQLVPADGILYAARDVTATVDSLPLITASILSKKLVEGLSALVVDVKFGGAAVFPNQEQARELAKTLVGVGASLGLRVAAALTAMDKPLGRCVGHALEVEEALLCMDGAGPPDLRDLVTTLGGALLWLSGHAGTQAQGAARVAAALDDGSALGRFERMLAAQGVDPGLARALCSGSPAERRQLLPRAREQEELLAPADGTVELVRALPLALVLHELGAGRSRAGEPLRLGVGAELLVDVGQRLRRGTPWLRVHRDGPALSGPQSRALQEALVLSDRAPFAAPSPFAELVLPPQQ
Method: (1) 100 mmol/l of thymidine (produced by Wako Pure Chemical Industries, Ltd.), 500 mmol/l of K2HPO4 (produced by Nacalai Tesque) and 0.5 mol/l of 2-morpholinoethansulfonic acid.H2O (pH 5.6; produced by Dojindo Laboratories) were prepared.
(2) The compound of the general formula (I) was dissolved in dimethylsulfoxide solution having a concentration of at most 10%, to prepare a test sample having a concentration of the compound of the general formula (I) of 1.0 mg/ml.
(3) 5 μg/ml of human platelet derived endothelial cell growth factor (produced by Sigma) was prepared. […]
(6) Absorbance of the solution for measurement was measured by using a spectrophotometer (SPECTRA max 250: produced by Molecular Devices) at a wavelength of 300 nm.
(7) Sterile water was added to 100 μl of buffer solution having 0.5 mol/l of 2-morpholinoethansulfonic acid.H2O (pH 5.6) and 20 μl of the test sample having a concentration of the compound of the general formula (I) of 1.0 mg/ml, so that the total amount was 200 μl, to prepare a solution of the compound of the general formula (I) having a final concentration of 100 μg/ml. Absorbance of a liquid having 50 μl of 2N-NaOH added to 50 μl of the solution, as a sample for measuring background, was measured at a wavelength of 300 nm. […]

Sequence of aminopeptidase N (P15144 2-967): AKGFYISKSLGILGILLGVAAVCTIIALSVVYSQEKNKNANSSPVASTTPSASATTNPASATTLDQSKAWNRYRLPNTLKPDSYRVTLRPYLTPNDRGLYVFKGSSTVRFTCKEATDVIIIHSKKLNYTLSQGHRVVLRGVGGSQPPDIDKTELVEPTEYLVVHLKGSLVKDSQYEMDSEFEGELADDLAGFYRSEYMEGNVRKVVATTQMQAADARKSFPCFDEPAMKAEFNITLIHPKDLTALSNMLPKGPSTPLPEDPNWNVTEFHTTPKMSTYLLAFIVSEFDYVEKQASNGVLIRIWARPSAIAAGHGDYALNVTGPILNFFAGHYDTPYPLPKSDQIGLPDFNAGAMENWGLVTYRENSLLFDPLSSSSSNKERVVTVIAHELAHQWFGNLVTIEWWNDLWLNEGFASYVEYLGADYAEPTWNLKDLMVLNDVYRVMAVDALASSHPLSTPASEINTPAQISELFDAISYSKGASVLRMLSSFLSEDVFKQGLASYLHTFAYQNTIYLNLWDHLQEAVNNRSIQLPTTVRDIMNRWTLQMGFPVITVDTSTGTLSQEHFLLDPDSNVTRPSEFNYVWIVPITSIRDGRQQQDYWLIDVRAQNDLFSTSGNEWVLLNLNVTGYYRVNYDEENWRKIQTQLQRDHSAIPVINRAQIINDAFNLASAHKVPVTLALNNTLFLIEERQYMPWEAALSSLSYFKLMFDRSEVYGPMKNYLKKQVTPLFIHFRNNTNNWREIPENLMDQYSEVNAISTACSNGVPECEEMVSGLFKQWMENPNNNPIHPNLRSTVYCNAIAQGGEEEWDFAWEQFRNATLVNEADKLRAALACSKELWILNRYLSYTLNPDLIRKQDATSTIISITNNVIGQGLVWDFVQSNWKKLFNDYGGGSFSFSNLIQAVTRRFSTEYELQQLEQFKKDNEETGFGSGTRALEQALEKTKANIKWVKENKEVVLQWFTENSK

Row | Aminopeptidase N inhibiting activity IC50 (aminopeptidase N) | IC50 [1] | Structure (SMILES)
1 | 38 µg/mL | – | CSc1ccccc1N1C(=O)c2cccc(O)c2C1=O [Compound 194]
2 | – | 160 µM | O=C1Cc2ccccc2C(=O)N1c1ccccc1 [Compound A-1, N-phenyl-homophthalimide]
3 | – | 230 µM | Cc1cccc(C)c1N1C(=O)Cc2ccccc2C1=O [Compound A-2, N-(2,6-dimethylphenyl)-homophthalimide]
